# Where two headings read alike, the source gives them in different places.
# Target: T1, cloned human dopamine D3 receptors (Homo sapiens, UniProt P35462)
# T1 construct: expressed in transfected cells
# Assay: [N-Methyl-3H]Spiroperidol binding to cloned human dopamine D3 receptors
# Source text: [N-Methyl-^3H]Spiroperidol Binding to Cloned Human Dopamine D3 Receptors
# This assay measures the in vitro activity of compounds on cloned human dopamine (D3) receptors and predicts the direct dopamine-blocking properties of putative neuropsychiatric agents at human dopamine D3 receptors.
# The D3 gene was isolated from a human striatal cDNA library (Stratagene). The gene was sequenced and sub-cloned into the expression vector RC/RSV (Invitrogen). CHO (Chinese Hamster Ovary) cells were stably transfected with 10 μg of the D3/RSV plasmid using the DOTAP method from Boehringer Mannheim and 72 clones that were G418 resistant were isolated. Using mRNA and binding displacement data a single high expressing clone was identified. This clone was then grown in large batches for the purpose of developing a 96 well format assay.
# The cells are harvested into 250 ml centrifuge tubes with 100 volumes of cold phosphate buffered saline (PBS) and spun down (1200×G for 10 min at 4° C.). The medium is removed and 100 ml PBS are added to each centrifuge tube, cells are resuspened and spun down again. The PBS is removed and the final pellet is homogenized in an appropriate volume of 10% DMSO with a polytron on ice at a medium setting.
# For Kj determinations: [^3H]NMSP is made up to a concentration of 2.7 nM in buffer 2b, such that when 150 μl is added to each tube a final concentration of 0.4 nM is attained in the 1 ml assay. Samples of total CPM added are taken for each experiment to calculate the total ligand concentration.
# 5. S(-)-Eticlopride is obtained from Research Biochemicals International (RBI catalog number E-101). A refrigerated stock (good for up to a month) solution of S(-)-eticlopride is made at a concentration of 30 μM in buffer 2b. One hundred microliters are added to 3 wells for the determination of nonspecific binding (this yields a final concentration of 3 μM in the 1 ml assay).
# For most assays, a 100 μM stock solution of the test compound is made up in a suitable solvent (usually <0.1% acetic acid) and serially diluted with buffer 2b, such that when 100 μl of drug is combined with the total 1 ml assay, final concentrations ranging from 10^−5-10^−8 M are attained. Characteristically eight concentrations are studied for each assay; however, higher or lower concentrations may be used, depending on the potency of the drug.
# The 96-Well Packard Unifilters GF/B are incubated for >1 h at 25° C. in 0.1% polyethylamine (from 3,b). The cold tissue is added last and mixed on a orbital shaker for a few seconds and is then incubated at 37° C. for 30 min in a shaking water bath. The assay is stopped by rapid filtration through Packard Unifilter plates. The filter membranes are then washed with 15 ml of ice-cold 0.05 M Tris buffer. The filters are then dried (˜15 min under a heat lamp or incubated for 15 min in a 60° C. oven) and a bottom seal is applied. Then 40 μl of Packard Microscint 20 scintillation cocktail is added and a permanent topseal (Type P) is applied and heat sealed. The plates are then shaken on an orbital shaker for 1 h and placed in the Packard Topcount and counted for at least 5 minutes for each point.
# Specific binding is defined as the difference between total binding and the binding in the presence of 3 μM S-(-)-eticlopride. Total binding is approximately 10% of the total added ligand. Cheng-Prusoff determination (Kj's) are performed using Prism software using a one-site competition curve analysis where the top and the bottom of the non-linear regression are held constant at 0% and 100% percent inhibition. The percent inhibition at each drug concentration is the mean of duplicate determinations.
# T1 sequence (P35462 whole entry): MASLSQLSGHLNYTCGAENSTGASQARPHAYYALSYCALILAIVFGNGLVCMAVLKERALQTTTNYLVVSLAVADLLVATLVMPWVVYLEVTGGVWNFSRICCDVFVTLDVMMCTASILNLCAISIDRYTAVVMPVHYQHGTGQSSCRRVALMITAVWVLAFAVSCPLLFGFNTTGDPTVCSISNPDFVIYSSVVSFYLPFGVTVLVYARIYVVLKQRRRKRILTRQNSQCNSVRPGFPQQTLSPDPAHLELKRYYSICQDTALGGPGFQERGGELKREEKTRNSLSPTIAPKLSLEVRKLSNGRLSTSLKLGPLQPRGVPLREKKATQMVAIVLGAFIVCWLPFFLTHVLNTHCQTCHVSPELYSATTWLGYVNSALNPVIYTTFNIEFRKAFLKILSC
Compound,"Ki (Table III, read-out: d3Ki) [nM]",Ki [nM]
O=C(NCCCCN1CCC(c2noc3ccsc23)CC1)NC12CC3CC(CC(C3)C1)C2 [compound 816210],187,
O=C(NCCCCN1CCN(c2c(-c3ccccc3)sc3cc(F)ccc23)CC1)NC1CCCCC1 [compound 816232],5.94,
O=C(NCCCCN1CCC(c2noc3ccsc23)CC1)Nc1ccc(Cl)c([N+](=O)[O-])c1 [compound 816559],13.1,
O=C(NCCCCN1CCC(c2noc3ccsc23)CC1)Nc1ccc([N+](=O)[O-])cc1 [compound 816562],6.99,
CCCCOc1ccc(NC(=O)NCCCCN2CCC(c3noc4ccsc34)CC2)cc1 [compound 816564],55.9,
COc1ccc(NC(=O)NCCCCN2CCC(c3noc4ccsc34)CC2)c(OC)c1 [compound 816567],73.8,
CCOc1ccccc1NC(=O)NCCCCN1CCC(c2noc3ccsc23)CC1 [compound 816764],85.4,
COc1ccc(NC(=O)NCCCCN2CCC(c3noc4ccsc34)CC2)c(OC)c1 [compound 816767],60.1,
COc1cc(Cl)c(NC(=O)NCCCCN2CCC(c3noc4ccsc34)CC2)c(OC)c1 [compound 816770],28.2,
COc1c(Cl)cccc1NC(=O)NCCCCN1CCC(c2noc3ccsc23)CC1 [compound 816771],74.1,
CCOc1ccccc1NC(=O)NCCCCN1CCC(c2noc3ccsc23)CC1 [compound 816876],46.9,
O=C(NCCCCN1CCC(c2noc3ccsc23)CC1)Nc1c(F)cccc1F [compound 816878],33.8,
COc1cc(Cl)c(NC(=O)NCCCCN2CCC(c3noc4ccsc34)CC2)c(OC)c1 [compound 816882],58.6,
O=C(NCCCCN1CCC(c2noc3ccsc23)CC1)NCc1ccc(Cl)cc1Cl [compound 816968],24.2,
CC(=O)c1ccc(NC(=O)NCCCCN2C3CCC2CC(c2noc4cc(F)ccc24)C3)cc1 (stereo not drawn) [compound 817228],,179
O=C(NCCCCN1C2CCC1CC(c1noc3cc(F)ccc13)C2)Nc1ccccc1F (stereo not drawn) [compound 817229],,365
O=C(NCCCCN1C2CCC1CC(c1noc3cc(F)ccc13)C2)Nc1ccc(-c2ccccc2)cc1 (stereo not drawn) [compound 817230],,182
O=C(NCCCCN1C2CCC1CC(c1noc3cc(F)ccc13)C2)Nc1cccc(C(F)(F)F)c1 (stereo not drawn) [compound 817231],,433
Cc1ccc(NC(=O)NCCCCN2C3CCC2CC(c2noc4cc(F)ccc24)C3)cc1 (stereo not drawn) [compound 817234],,256

Compound,"Ki (Table III, read-out: d3Ki) [nM]",Ki [nM]
COc1ccc(NC(=O)NCCCCN2CCC(c3noc4ccsc34)CC2)c(OC)c1 [compound 818310],133,
O=C(NCCCCN1CCN(c2n[nH]c3ccsc23)CC1)Nc1ccc(C(F)(F)F)cc1 [compound 825154],,35.5
CCOc1ccc(NC(=O)NCCCCN2CCN(c3n[nH]c4ccsc34)CC2)cc1 [compound 825156],,63.2
O=C(NCCCCN1CCN(c2nn(C(=O)Nc3ccc(OC(F)(F)F)cc3)c3ccsc23)CC1)Nc1ccc(OC(F)(F)F)cc1 [compound 825167],,374
CCOc1ccc(NC(=O)NCCCCN2CCN(c3nn(C(=O)Nc4ccc(OCC)cc4)c4ccsc34)CC2)cc1 [compound 825168],,47.4
O=C(NCCCCN1CCN(c2cn(C(=O)Nc3ccc(F)cc3)c3ccsc23)CC1)Nc1ccc(F)cc1 [compound 825170],,136
O=C(NCCCCN1CCN(c2nn(C(=O)Nc3ccc(F)cc3F)c3ccsc23)CC1)Nc1ccc(F)cc1F [compound 825171],,496
O=C(NCCCCN1CCCN(c2csc3cc(F)ccc23)CC1)Nc1ccc(Cl)c(Cl)c1 [compound 829191],,43
Cc1cccc(NC(=O)NCCCCN2CCCN(c3csc4cc(F)ccc34)CC2)c1 [compound 829192],,4.03
O=C(NCCCCN1CCCN(c2csc3cc(F)ccc23)CC1)Nc1cccc(Cl)c1 [compound 829193],,7.86
O=C(NCCCCN1CCCN(c2csc3cc(F)ccc23)CC1)Nc1ccc(C(F)(F)F)cc1 [compound 829195],,21.1
O=C(NCCCCN1CCCN(c2csc3cc(F)ccc23)CC1)Nc1ccc(OC(F)(F)F)cc1 [compound 829197],,34.8
O=C(NCCCCN1CCCN(c2csc3cc(F)ccc23)CC1)Nc1cc(C(F)(F)F)cc(C(F)(F)F)c1 [compound 829198],,65.6
CSc1ccc(NC(=O)NCCCCN2CCCN(c3csc4cc(F)ccc34)CC2)cc1 [compound 829204],,5
CC(=O)c1cccc(NC(=O)NCCCCN2CCCN(c3csc4cc(F)ccc34)CC2)c1 [compound 829206],,2.5
COc1cc(NC(=O)NCCCCN2CCCN(c3csc4cc(F)ccc34)CC2)cc(OC)c1OC [compound 829210],,1.99
O=C(NCCCCN1CCCN(c2csc3cc(F)ccc23)CC1)Nc1ccc(F)cc1 [compound 829215],,6.59
O=C(NCCCCN1CCCN(c2csc3cc(F)ccc23)CC1)Nc1cccc(F)c1 [compound 829217],,3.51
O=C(NCCCCN1CCCN(c2csc3cc(F)ccc23)CC1)Nc1cccc(C(F)(F)F)c1 [compound 829218],,0.165

# The next lines start with the values.
"Ki (Table III, read-out: d3Ki) [nM]",Ki [nM],Compound
184,,CC(=O)c1ccc(NC(=O)NCCCCN2CCN(c3c(-c4ccccc4)sc4cc(F)ccc34)CC2)cc1 [compound 816226]
20.7,,O=C(NCCCCN1CCC(c2noc3ccsc23)CC1)Nc1ccc(F)c([N+](=O)[O-])c1 [compound 816557]
95.1,,O=C(NCCCCN1CCC(c2noc3ccsc23)CC1)Nc1ccc(Cl)cc1Cl [compound 816566]
42.9,,O=C(NCCCCN1CCC(c2noc3ccsc23)CC1)Nc1c(F)cccc1F [compound 816766]
57.8,,O=C(NCCCCN1CCC(c2noc3ccsc23)CC1)Nc1ccc(Cl)cc1Cl [compound 816769]
47,,COc1ccc(NC(=O)NCCCCN2CCC(c3noc4ccsc34)CC2)c(OC)c1 [compound 816879]
23.8,,O=C(NCCCCN1CCC(c2noc3ccsc23)CC1)Nc1cc(C(F)(F)F)cc(C(F)(F)F)c1 [compound 816881]
35.5,,COc1c(Cl)cccc1NC(=O)NCCCCN1CCC(c2noc3ccsc23)CC1 [compound 816883]
,84.8,O=C(NCCCCN1CCN(c2n[nH]c3ccsc23)CC1)Nc1ccc(OC(F)(F)F)cc1 [compound 825155]
,202,O=C(NCCCCN1CCN(c2nn(C(=O)Nc3ccccc3C(F)(F)F)c3ccsc23)CC1)Nc1ccccc1C(F)(F)F [compound 825160]
,10.9,O=C(NCCCCN1CCCN(c2csc3cc(F)ccc23)CC1)Nc1cccc(Br)c1 [compound 829196]
,47.8,O=C(NCCCCN1CCCN(c2csc3cc(F)ccc23)CC1)Nc1ccc(Cl)c(C(F)(F)F)c1 [compound 829200]
,16.6,O=C(NCCCCN1CCCN(c2csc3cc(F)ccc23)CC1)Nc1cc(Cl)cc(Cl)c1 [compound 829202]
,5.64,Cc1ccc(NC(=O)NCCCCN2CCCN(c3csc4cc(F)ccc34)CC2)cc1 [compound 829203]
,141,CC(C)c1ccc(NC(=O)NCCCCN2CCCN(c3csc4cc(F)ccc34)CC2)cc1 [compound 829207]
,16,O=C(NCCCCN1CCCN(c2csc3cc(F)ccc23)CC1)Nc1cc(C(F)(F)F)ccc1F [compound 829211]
,49.9,O=C(NCCCCN1CCCN(c2csc3cc(F)ccc23)CC1)Nc1c(F)cccc1C(F)(F)F [compound 829212]
,181,O=C(NCCCCN1CCCN(c2csc3cc(F)ccc23)CC1)Nc1ccc(F)c(C(F)(F)F)c1 [compound 829213]
,14.1,O=C(NCCCCN1CCCN(c2csc3cc(F)ccc23)CC1)Nc1ccc(Cl)cc1 [compound 829214]
,0.178,O=C(NCCCCN1CCCN(c2csc3cc(F)ccc23)CC1)Nc1ccccc1F [compound 829216]
,0.0926,COc1ccc(NC(=O)NCCCCN2CCCN(c3csc4cc(F)ccc34)CC2)cc1 [compound 829219]
,18.1,O=C(NCCCCN1CCCN(c2csc3cc(F)ccc23)CC1)Nc1ccc(Br)cc1 [compound 829220]

# Reference: patent publication US20030229066A1, “Novel heterocyclic urea derivatives and their use as dopamine D3 receptor ligands” (priority 2001, published 2003)
